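At the GI50, growth is halved. The concentration for full growth arrest is given as TGI.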
Columns and labels:
Experiment in all cases: DTP human tumour cell line panel, 384-well format
[1] = system: A549 NSCLC
[2] = system: IGROV1 ovarian
[3] = system: NCI-H23 lung
[4] = system: RXF 393 renal
[5] = system: HS 578T breast
[6] = system: K-562 leukemia
[7] = system: OVCAR-5 ovarian
[8] = system: SK-MEL-28 melanoma
[9] = system: U251 glioblastoma
[10] = system: NCI-H226 lung
[11] = system: SNB-75 CNS
[12] = system: SK-MEL-5 melanoma
[13] = system: 786-0 renal

COc1cc(C)[nH]c(=O)c1CN1CCc2c(Cl)cc([C@H](OC)C3COC3)c(Cl)c2C1=O
GI50 [1]: > 100 µM | TGI [1]: > 100 µM | GI50 [2]: > 100 µM | TGI [2]: > 100 µM | GI50 [3]: > 100 µM | TGI [3]: > 100 µM | GI50 [4]: > 100 µM | TGI [4]: > 100 µM | GI50 [5]: > 100 µM | TGI [5]: > 100 µM | GI50 [6]: > 100 µM | TGI [6]: > 100 µM | GI50 [7]: > 100 µM | TGI [7]: > 100 µM | GI50 [8]: > 100 µM | TGI [8]: > 100 µM | GI50 [9]: > 100 µM | TGI [9]: > 100 µM | GI50 [10]: > 100 µM | TGI [10]: > 100 µM | GI50 [11]: > 100 µM | TGI [11]: > 100 µM | GI50 [12]: > 100 µM | TGI [12]: > 100 µM | GI50 [13]: > 100 µM | TGI [13]: > 100 µM

C[C@@H](Oc1cc(NS(=O)(=O)N2CCC2)nc(SCc2cccc(F)c2F)n1)[C@@H](O)CO
GI50 [1]: > 100 µM | TGI [1]: > 100 µM | GI50 [2]: > 100 µM | TGI [2]: > 100 µM | GI50 [3]: 99.2 µM | TGI [3]: > 100 µM | GI50 [4]: > 81.5 µM | TGI [4]: > 100 µM | GI50 [5]: 57.7 µM | TGI [5]: > 100 µM | GI50 [6]: > 68.3 µM | TGI [6]: > 100 µM | GI50 [7]: > 100 µM | TGI [7]: > 100 µM | GI50 [8]: > 100 µM | TGI [8]: > 100 µM | GI50 [9]: > 100 µM | TGI [9]: > 100 µM | GI50 [10]: > 89.3 µM | TGI [10]: > 100 µM | GI50 [11]: > 100 µM | TGI [11]: > 100 µM | GI50 [12]: > 59.4 µM | TGI [12]: > 100 µM | GI50 [13]: > 100 µM | TGI [13]: > 100 µM

From PubChem BioAssay (NCI)
